Data published in the supplement of paper PMC10307832.

Assays:
Experiment in all cases: relative viability (nuclei count vs DMSO), 5 days (fraction); higher = more cells survive
Cediranib + Palbociclib = compound: COc1cc2c(Oc3ccc4[nH]c(C)cc4c3F)ncnc2cc1OCCCN1CCCC1 [Cediranib] + CC(=O)c1c(C)c2cnc(Nc3ccc(N4CCNCC4)cn3)nc2n(C2CCCC2)c1=O [Palbociclib] (partner 0.5 µM)
Outline: (§1)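 Five library-drug doses in √10 steps were combined with a fixed anchor-drug dose, or a single drug was given alone, by pin tool to lung cancer cell lines in 1536-well plates the day after seeding. Nuclei were stained and counted after 5 days. Relative viability is the nuclei count in treated wells over that in vehicle wells, taken as the median of duplicate plates.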

Decitabine + Pictilisib = compound: Nc1ncn([C@H]2C[C@H](O)[C@@H](CO)O2)c(=O)n1 [Decitabine] + CS(=O)(=O)N1CCN(Cc2cc3nc(-c4cccc5[nH]ncc45)nc(N4CCOCC4)c3s2)CC1 [Pictilisib] (partner 1 µM)
Outline: as §1

Decitabine + Crizotinib = compound: Nc1ncn([C@H]2C[C@H](O)[C@@H](CO)O2)c(=O)n1 [Decitabine] + C[C@@H](Oc1cc(-c2cnn(C3CCNCC3)c2)cnc1N)c1c(Cl)ccc(F)c1Cl [Crizotinib] (partner 1 µM)
Outline: as §1

[1] = compound: O=C(C[C@H]1NCCC[C@@H]1O)Cn1cnc2cc(Br)c(Cl)cc2c1=O (racemic) [Halofuginone] + CC(=O)c1c(C)c2cnc(Nc3ccc(N4CCNCC4)cn3)nc2n(C2CCCC2)c1=O [Palbociclib] (partner 0.5 µM)
Outline: as §1

Cell Line	relative viability (Cediranib + Palbociclib; first compound 0.04 µM)	relative viability (Cediranib + Palbociclib; first compound 0.1265 µM)	relative viability (Cediranib + Palbociclib; first compound 0.4 µM)	relative viability (Cediranib + Palbociclib; first compound 1.265 µM)	relative viability (Cediranib + Palbociclib; first compound 4 µM)	relative viability (Decitabine + Pictilisib; first compound 0.04 µM)	relative viability (Decitabine + Pictilisib; first compound 0.1265 µM)	relative viability (Decitabine + Pictilisib; first compound 0.4 µM)	relative viability (Decitabine + Pictilisib; first compound 1.265 µM)	relative viability (Decitabine + Pictilisib; first compound 4 µM)	relative viability (Decitabine + Crizotinib; first compound 0.04 µM)	relative viability (Decitabine + Crizotinib; first compound 0.1265 µM)	relative viability (Decitabine + Crizotinib; first compound 0.4 µM)	relative viability (Decitabine + Crizotinib; first compound 1.265 µM)	relative viability (Decitabine + Crizotinib; first compound 4 µM)	relative viability ([1]; first compound 0.001 µM)	relative viability ([1]; first compound 0.003162 µM)	relative viability ([1]; first compound 0.01 µM)	relative viability ([1]; first compound 0.03162 µM)	relative viability ([1]; first compound 0.1 µM)
NCI-H2009	0.308	0.188	0.19	0.0997	0.211	0.773	0.672	0.351	0.386	0.245	0.846	0.639	0.464	0.281	0.25	0.349	0.252	0.218	0.201	0.157
NCI-H2023	0.398	0.344	0.359	0.413	0.397	0.244	0.252	0.174	0.142	0.143	0.471	0.455	0.285	0.217	0.133	0.406	0.361	0.374	0.138	0.0623
NCI-H2085	0.5	0.48	0.469	0.473	0.466	0.454	0.462	0.408	0.403	0.404	0.578	0.432	0.519	0.399	0.388	0.521	0.461	0.458	0.461	0.487
NCI-H2087	0.243	0.24	0.249	0.182	0.224	0.762	0.779	0.519	0.404	0.336	0.515	0.568	0.563	0.347	0.292	0.254	0.22	0.189	0.22	0.2
NCI-H2126	0.349	0.358	0.359	0.349	0.314	0.517	0.543	0.463	0.39	0.438	0.827	0.837	0.666	0.555	0.52	0.362	0.344	0.347	0.346	0.354
NCI-H2170	0.438		0.371	0.372	0.381	0.256	0.254	0.312	0.285	0.269	0.942	0.875	0.79	0.463	0.395	0.382	0.392	0.358	0.401	0.373
NCI-H2228	0.648	1.02	0.752	0.615	0.787	0.355	0.441	0.179	0.287	0.232	0.524	0.394	0.367	0.199	0.286	0.957	0.736	0.971	0.496	0.111
NCI-H2347	0.497	0.417	0.4	0.4	0.417	0.59	0.599	0.63	0.495	0.554	0.691	0.511	0.549	0.474	0.469	0.44	0.453	0.513	0.438	0.332
